As usually defined, the IC50 is the point on the concentration scale where inhibition reaches its midpoint.

Read-outs that look alike come from different tables or passages of the source. Some results are limits rather than exact numbers.

One experiment relates to HepG2 cells. The experiment can be described thus: MTT anti-proliferative assay, HepG2. The conditions noted are these: read-out: IC50 HepG2. The experiment is classed as cell-based, human. (In general: Formazan colour is commonly taken as a measure of viable cells.)
In another experiment the test system is MCF-7 cells. The experiment can be described thus: MTT anti-proliferative assay, MCF-7. The experiment is classed as cell-based, human. The settings on record: Homo sapiens, read-out: IC50 MCF-7.
The test system of the next experiment is HeLa cells. The experiment can be described thus: MTT anti-proliferative assay, HeLa. The class given is cell-based. The conditions noted are these: Homo sapiens, read-out: IC50 HeLa.
The next experiment has as its system GES-1 cells. The experiment in a line: MTT cytotoxicity assay, normal GES-1. The class given is cell-based, human. The conditions noted are these: for IC50: Homo sapiens, read-out: IC50 GES-1.
[1] abbreviates: MTT, 48 h treatment, average ± SD of three independent experiments.

Turning to `C[C@H](CC[C@H]1OC2C[C@H]3[C@@H]4CC=C5C[C@@H](O)CC[C@]5(C)C4CC[C@]3(C)C2[C@@H]1C)COC(=O)c1ccc(N(CCCl)CCCl)cc1` (stereo partly drawn) [Compound 8, (22 R,25R)-3β-hydroxy-5-en-furostan-26–4-(bis(2-chloroethyl)amino)benzoate], the IC50 in the experiment with HepG2 cells (Homo sapiens, HepG2, 48 h) is > 50 µM; with MCF-7 cells (MCF7, 48 h) it was > 50 µM; with HeLa cells (48 h) it was > 50 µM; with GES-1 cells (GES1, 48 h), > 100 µM.
Regarding `C[C@H](CC[C@H]1OC2C[C@H]3[C@@H]4CC=C5C[C@@H](OC(=O)c6ccc(N(CCCl)CCCl)cc6)CC[C@]5(C)C4CC[C@]3(C)C2[C@@H]1C)COC(=O)c1ccc(N(CCCl)CCCl)cc1` (stereo partly drawn) [Compound 9, (22 R,25R)-3β-((4-(bis(2-chloroethyl)amino)benzoyl)oxy)-5-en-furostan-26–4-(bis(2-chloroethyl)amino) benzoate], the IC50 in the experiment with HepG2 cells (Homo sapiens, HepG2, 48 h) was > 50 µM; with MCF-7 cells (MCF7, 48 h) it was > 50 µM; in the experiment on HeLa cells (48 h), > 50 µM; in the experiment with GES-1 cells (GES1, 48 h) it was > 100 µM.
As for `CC(=O)O[C@H]1CC[C@@]2(C)C(=CC[C@@H]3C2CC[C@]2(C)C4C(C[C@@H]32)O[C@H](CC[C@@H](C)COC(=O)c2ccc(N(CCCl)CCCl)cc2)[C@H]4C)C1` (stereo partly drawn) [Compound 10, (22 R,25R)-3β-acetoxy-5-en-furostan-26–4-(bis(2-chloroethyl)amino)benzoate], the IC50 in the experiment on HepG2 cells (Homo sapiens, HepG2, 48 h) was > 50 µM; with MCF-7 cells (MCF7, 48 h), 28.1 ± 1.52 µM; in the experiment on HeLa cells (48 h) it was > 50 µM; in the experiment on GES-1 cells (GES1, 48 h), > 100 µM.
For the compound `CC(=O)OC1CCC2(C)C(=CCC3C2CCC2(C)C3CC3OC(CCC(C)C(=O)NCCNC(=O)c4ccc(N(CCCl)CCCl)cc4)C(C)C32)C1` [Compound 14a, (22 R,25R)-(2-aminoethyl-4-(bis(2-chloroethyl)amino)benzamido)-3β-acetoxy-5-en-furostan-26-amide], the IC50 in the experiment with HepG2 cells (Homo sapiens, HepG2, 48 h) is 10.2 ± 1.01 µM; in the experiment on MCF-7 cells (MCF7, 48 h) it was 48.3 ± 2.21 µM; with HeLa cells (48 h) it was 17.2 ± 2.81 µM; with GES-1 cells (GES1, 48 h), > 100 µM.
Consider `CC(=O)OC1CCC2(C)C(=CCC3C2CCC2(C)C3CC3OC(CCC(C)C(=O)NCCCNC(=O)c4ccc(N(CCCl)CCCl)cc4)C(C)C32)C1` [Compound 14b, (22 R,25R)-(3-aminopropyl-4-(bis(2-chloroethyl)amino)benzamido)-3β-acetoxy-5-en-furostan-26-amide], for which the IC50 in the experiment with HepG2 cells (Homo sapiens, HepG2, 48 h) is 25.3 ± 1.4 µM; in the experiment with MCF-7 cells (MCF7, 48 h), 30.3 ± 2.08 µM; in the experiment on HeLa cells (48 h), > 100 µM; in the experiment on GES-1 cells (GES1, 48 h), 47 ± 2.34 µM. Also, the SI in the experiment with GES-1 cells was found to be 1.86.
On to `CC(=O)OC1CCC2(C)C(=CCC3C2CCC2(C)C3CC3OC(CCC(C)C(=O)N4CCN(C(=O)c5ccc(N(CCCl)CCCl)cc5)CC4)C(C)C32)C1` [Compound 14e, (22 R,25R)-(1-piperazinyl-4-(bis(2-chloroethyl)amino)benzamido)-3β-acetoxy-5-en-furostan-26-amide], for which the IC50 in the experiment on HepG2 cells (Homo sapiens, HepG2, 48 h) is 19.3 ± 1.29 µM; in the experiment on MCF-7 cells (MCF7, 48 h), 42.7 ± 2.25 µM; with HeLa cells (48 h) it was > 50 µM; in the experiment on GES-1 cells (GES1, 48 h), 58.8 ± 1.34 µM. The same compound came in with an SI in the experiment on GES-1 cells of 3.05.
On the same counts, the results for `CC(CCC1OC2CC3C4CC=C5CC(O)CCC5(C)C4CCC3(C)C2C1C)C(=O)NCCNC(=O)c1ccc(N(CCCl)CCCl)cc1` [Compound 15a, (22 R,25R)-(2-aminoethyl-4-(bis(2-chloroethyl)amino)benzamido)-3β-hydroxy-5-en-furostan-26-amide] are 13.2 ± 1.01 µM, > 100 µM, > 50 µM, 83.2 ± 3.12 µM and 6.28.
On the same counts, the results for `CC(CCC1OC2CC3C4CC=C5CC(O)CCC5(C)C4CCC3(C)C2C1C)C(=O)NCCCNC(=O)c1ccc(N(CCCl)CCCl)cc1` [Compound 15b, (22 R,25R)-(3-aminopropyl-4-(bis(2-chloroethyl)amino)benzamido)-3β-hydroxy-5-en-furostan-26-amide] are 14 ± 1.15 µM, 37.2 ± 2.23 µM, 49.8 ± 2.13 µM, > 100 µM and >7.14.
As to `CC(CCC1OC2CC3C4CC=C5CC(O)CCC5(C)C4CCC3(C)C2C1C)C(=O)N1CCN(C(=O)c2ccc(N(CCCl)CCCl)cc2)CC1` [Compound 15e, (22 R,25R)-(1-piperazinyl-4-(bis(2-chloroethyl)amino)benzamido)-3β-hydroxy-5-en-furostan-26-amide], the IC50 with HepG2 cells (Homo sapiens, HepG2, 48 h) is 14 ± 1.12 µM; in the experiment with MCF-7 cells (MCF7, 48 h), > 50 µM; with HeLa cells (48 h), 28.5 ± 2.13 µM; with GES-1 cells (GES1, 48 h), > 100 µM.
Consider `CC(CCC1OC2CC3C4CC=C5CC(O)CCC5(C)C4CCC3(C)C2C1C)C(=O)N1CCCN(C(=O)c2ccc(N(CCCl)CCCl)cc2)CC1` [Compound 15f, (22 R,25R)-(4–(1-homopiperazinyl)-4-(bis(2-chloroethyl)amino)benzamido)-3β-hydroxy-5-en-furostan-26-amide], for which the IC50 is 18.9 ± 0.93 µM with HepG2 cells (Homo sapiens, HepG2, 48 h); > 100 µM with MCF-7 cells (MCF7, 48 h); > 50 µM in the experiment on HeLa cells (48 h); > 100 µM in the experiment with GES-1 cells (GES1, 48 h). Further, the SI in the experiment on GES-1 cells is given as >5.28.
As for `C[C@@H]1CC[C@@]2(OC1)O[C@H]1C[C@H]3[C@@H]4CC=C5C[C@@H](O)CC[C@]5(C)[C@H]4CC[C@]3(C)[C@H]1[C@@H]2C` [Diosgenin], the IC50 was 32.6 µM in the experiment with HepG2 cells (Homo sapiens, HepG2, 48 h, MTT, 48 h treatment, average ± SD of three independent experiments); 33.9 ± 1.37 µM with HepG2 cells (setting [1]); 23.9 ± 1.34 µM in the experiment on MCF-7 cells (MCF7, MTT, 48 h treatment, average ± SD of three independent experiments); 55.1 ± 2.11 µM in the experiment with HeLa cells (setting [1]); > 100 µM in the experiment on GES-1 cells (GES1, MTT, 48 h treatment, normal gastric epithelial cells, average ± SD of three independent experiments). In addition, the SI in the experiment with GES-1 cells (SI = IC50 for GES-1 cell line/IC50 for HepG2 cell line) was >2.95.
Regarding `CO[C@@]12[C@H](COC(N)=O)C3=C(C(=O)C(C)=C(N)C3=O)N1C[C@@H]1N[C@@H]12` [Mitomycin C, reference compound], the IC50 worked out at 32.6 ± 1.22 µM with HepG2 cells (Homo sapiens, HepG2, 48 h); 16.7 ± 1.02 µM in the experiment on MCF-7 cells (MCF7, 48 h); 22 ± 1.12 µM with HeLa cells (48 h); 23.4 ± 1.11 µM in the experiment on GES-1 cells (GES1, 48 h). Moreover, the SI with GES-1 cells stood at 0.72.
